Patent US6642391B2, “Amycomycin, a process for its production and its use as a pharmaceutical” (priority 1999, dated 2003)
In brackets after ≈: the same amount, converted by molar mass. Like-named read-outs stand apart in the source and are kept apart here.

Tests used:
[1] = test system: gram-positive bacteria such as Staphylo- and Enterococci; assay: Antibacterial activity; format: cell-based; details: particularly against gram-positive bacteria such as Staphylo- and Enterococci
Excerpt: (§1) Lately, these strains have proven increasingly to be problem strains, i.e., those microorganisms that have become resistant to existing antibiotics. The superiority of the present compound in relation to other antibiotics is shown, for example, in the inhibition of vancomycin- and teicoplanin-resistant strains such as, for example, E. faecalis, E. faecium or E. gallinarium.

[2] = Physical-chemical characteristics: solubility; format: physicochemical; details: solvents: methanol, DMSO, pyridine
Excerpt: The physical-chemical as well as the spectroscopic characteristics of the compound Amycomycin according to the invention are as follows: […]

S.aureus 011GO71 = assay: MIC micro-dilutions test; format: cell-based; details: Staphylococcus aureus
Excerpt: as §1

E.faecalis O2D2HM9 = assay: MIC micro-dilutions test; format: cell-based; details: Enterococcus faecalis
Excerpt: as §1

S.aureus 011GR91 = assay: MIC micro-dilutions test; format: cell-based; details: Staphylococcus aureus
Excerpt: as §1

E.gallinarium O2D0HM8 = assay: MIC micro-dilutions test; format: cell-based; details: read-out: Minimum Inhibition Concentration
Excerpt: as §1

S.pyogenes O2A1SJ1 = assay: MIC micro-dilutions test; format: cell-based; details: Streptococcus pyogenes
Excerpt: as §1

S.mitis O2mitGR16 = assay: MIC micro-dilutions test; format: cell-based; details: Streptococcus mitis
Excerpt: as §1

S.aureus 011HT1 = assay: MIC micro-dilutions test; format: cell-based; details: Staphylococcus aureus
Excerpt: as §1

E.faecalis O2D2HT10 = assay: MIC micro-dilutions test; format: cell-based; details: Enterococcus faecalis
Excerpt: as §1

S.aureus 011HT3 = assay: MIC micro-dilutions test; format: cell-based; details: Staphylococcus aureus
Excerpt: as §1

E.faecium O2D3AP9 = assay: MIC micro-dilutions test; format: cell-based; details: Enterococcus faecium
Excerpt: as §1

[3] = test system: Staph.coag.negative 012HT5; assay: MIC micro-dilutions test; format: cell-based; details: read-out: Minimum Inhibition Concentration
Excerpt: as §1

E.faecium O2D3HM3 = assay: MIC micro-dilutions test; format: cell-based; details: Enterococcus faecium
Excerpt: as §1

P.aeruginosa 1771 391HT2 = assay: MIC micro-dilutions test; format: cell-based; details: Pseudomonas aeruginosa, 1771391HT2, Gram-negative, read-out: Minimum Inhibition Concentration
Excerpt: as §1

S.epidermidis 012GO20 = assay: MIC micro-dilutions test; format: cell-based; details: Staphylococcus epidermidis; S.epidermidis 012GO20, oxa S ery S tet R; Gram-positive; read-out: Minimum Inhibition Concentration
Excerpt: as §1

[4] = test system: P.aeruginosa 1771m 391HT3; assay: MIC micro-dilutions test; format: cell-based; details: Pseudomonas aeruginosa, 1771M391HT3, read-out: Minimum Inhibition Concentration
Excerpt: as §1

E.faecalis O2D2UC5 = assay: MIC micro-dilutions test; format: cell-based; details: Enterococcus faecalis
Excerpt: as §1

E.faecium O2D3HT12 = assay: MIC micro-dilutions test; format: cell-based; details: Enterococcus faecium
Excerpt: as §1

S.pneumoniae 030BI2 = assay: MIC micro-dilutions test; format: cell-based; details: Streptococcus pneumoniae
Excerpt: as §1

S.aureus 011CB20 = assay: MIC micro-dilutions test; format: cell-based; details: Staphylococcus aureus
Excerpt: as §1

S.pyogenes O2A1UC1 = assay: MIC micro-dilutions test; format: cell-based; details: Streptococcus pyogenes
Excerpt: as §1

S.pyogenes O2A1FI6 = assay: MIC micro-dilutions test; format: cell-based; details: Streptococcus pyogenes
Excerpt: as §1

S.aureus 011HT18 = assay: MIC micro-dilutions test; format: cell-based; details: Staphylococcus aureus
Excerpt: as §1

S.aureus 011DU5 = assay: MIC micro-dilutions test; format: cell-based; details: Staphylococcus aureus
Excerpt: as §1

S.aureus 011GO64 = assay: MIC micro-dilutions test; format: cell-based; details: Staphylococcus aureus
Excerpt: as §1

Strepto gr.G O2G0CB2 = assay: MIC micro-dilutions test; format: cell-based; details: read-out: Minimum Inhibition Concentration
Excerpt: as §1

S.epidermidis 012GO42 = assay: MIC micro-dilutions test; format: cell-based; details: Staphylococcus epidermidis; S.epidermidis 012GO42, oxa R; Gram-positive; read-out: Minimum Inhibition Concentration
Excerpt: as §1

E.faecalis O2D2DU18 = assay: MIC micro-dilutions test; format: cell-based; details: Enterococcus faecalis
Excerpt: as §1

S.milleri O2milGR12 = assay: MIC micro-dilutions test; format: cell-based; details: S.milleri O2milGR12, ery S van S; Gram-positive; read-out: Minimum Inhibition Concentration
Excerpt: as §1

E.faecium O2D3IP2 = assay: MIC micro-dilutions test; format: cell-based; details: Enterococcus faecium; E.faecium O2D3IP2, tei R van R ery R tet R; Gram-positive; read-out: Minimum Inhibition Concentration
Excerpt: as §1

C/C(=C\CC(O)CC(O)CCC(C)C(O)C(C)C(O)CCCC(O)C(C)C(O)/C(C)=C/C(C)C(=O)/C(C)=C/C(O)C(O)CC(O)CC(O)C(C)CCC(O)CC(O)CCC(C)C(O)C(C)C(O)C(C)C)C(=O)C1=C(O)/C(=C/C(C)C)N(C)C1=O (stereo not drawn) [Amycomycin]
antibacterial activity [1]: extraordinary antibacterial activity | Solubility (Appearance) [2]: colorless solid, soluble in methanol, DMSO, | MIC (S.aureus 011GO71; S.aureus 011GO71, ofl S oxa R ery S tet R, Gram-positive, read-out: Minimum Inhibition Concentration): 0.15 µg/mL (≈ 0.125 µM) | MIC (E.faecalis O2D2HM9; E.faecalis O2D2HM9, nov R van B ery R tei S, Gram-positive, read-out: Minimum Inhibition Concentration): 2.5 µg/mL (≈ 2.09 µM) | MIC (S.aureus 011GR91; S.aureus 011GR91, pri R oxa R ery R nov R, Gram-positive, read-out: Minimum Inhibition Concentration): 1.2 µg/mL (≈ 1 µM) | MIC (E.gallinarium O2D0HM8; E.gallinarium O2D0HM8, van C tet R ery S, Gram-positive): 1.2 µg/mL (≈ 1 µM) | MIC (S.pyogenes O2A1SJ1; S.pyogenes O2A1SJ1, van S ery Rc, Gram-positive, read-out: Minimum Inhibition Concentration): 0.3 µg/mL (≈ 0.25 µM) | MIC (S.mitis O2mitGR16; S.mitis O2mitGR16, ery Ri van S, Gram-positive, read-out: Minimum Inhibition Concentration): 1.2 µg/mL (≈ 1 µM) | MIC (S.aureus 011HT1; S.aureus 011HT1, nov R, Gram-positive, read-out: Minimum Inhibition Concentration): ≤ 0.04 µg/mL | MIC (E.faecalis O2D2HT10; E.faecalis O2D2HT10, nov R van S tet R, Gram-positive, read-out: Minimum Inhibition Concentration): 1.2 µg/mL (≈ 1 µM) | MIC (S.aureus 011HT3; S.aureus 011HT3, oxa S ery S, Gram-positive, read-out: Minimum Inhibition Concentration): 0.08 µg/mL (≈ 0.0667 µM) | MIC (E.faecium O2D3AP9; E.faecium O2D3AP9, nov S van R ery S tei R, Gram-positive, read-out: Minimum Inhibition Concentration): 0.6 µg/mL (≈ 0.501 µM) | MIC ([3]; Staph.coag.negative 012HT5, ofl R oxa R tet R, Gram-positive): 0.15 µg/mL (≈ 0.125 µM) | MIC (E.faecium O2D3HM3; E.faecium O2D3HM3, nov S van A ery R tei R, Gram-positive, read-out: Minimum Inhibition Concentration): 1.2 µg/mL (≈ 1 µM) | MIC (P.aeruginosa 1771 391HT2): > 40 µg/mL | MIC (S.epidermidis 012GO20): 0.3 µg/mL (≈ 0.25 µM) | MIC [4]: > 40 µg/mL | MIC (E.faecalis O2D2UC5; ATCC29212, E.faecalis O2D2UC5, ATCC 29212 nov R, Gram-positive, read-out: Minimum Inhibition Concentration): 2.5 µg/mL (≈ 2.09 µM) | MIC (E.faecium O2D3HT12; E.faecium O2D3HT12, tei R van R ery R tet R, Gram-positive, read-out: Minimum Inhibition Concentration): 0.6 µg/mL (≈ 0.501 µM) | MIC (S.pneumoniae 030BI2; S.pneumoniae 030BI2, ery R, Gram-positive, read-out: Minimum Inhibition Concentration): 0.15 µg/mL (≈ 0.125 µM) | MIC (S.aureus 011CB20; S.aureus 011CB20, oxa R ery Rc tet R, Gram-positive, read-out: Minimum Inhibition Concentration): 0.08 µg/mL (≈ 0.0667 µM) | MIC (S.pyogenes O2A1UC1; S.pyogenes O2A1UC1, van S ery S, Gram-positive, read-out: Minimum Inhibition Concentration): 0.6 µg/mL (≈ 0.501 µM) | MIC (S.pyogenes O2A1FI6; S.pyogenes O2A1FI6, ery R, Gram-positive, read-out: Minimum Inhibition Concentration): 0.6 µg/mL (≈ 0.501 µM) | MIC (S.aureus 011HT18; ATCC13709, S.aureus 011HT18, ATCC 13709 Smith, Gram-positive, read-out: Minimum Inhibition Concentration): 0.08 µg/mL (≈ 0.0667 µM) | MIC (S.aureus 011DU5; S.aureus 011DU5, nov R tet R, Gram-positive, read-out: Minimum Inhibition Concentration): 0.08 µg/mL (≈ 0.0667 µM) | MIC (S.aureus 011GO64; S.aureus 011GO64, ofl R oxa R ery Rc tet R, Gram-positive, read-out: Minimum Inhibition Concentration): 0.3 µg/mL (≈ 0.25 µM) | MIC (Strepto gr.G O2G0CB2; Strepto gr.G O2G0CB2, tet R rif R nov R, Gram-positive): 0.6 µg/mL (≈ 0.501 µM) | MIC (S.epidermidis 012GO42): 0.3 µg/mL (≈ 0.25 µM) | MIC (E.faecalis O2D2DU18; E.faecalis O2D2DU18, tet R nov R, Gram-positive, read-out: Minimum Inhibition Concentration): 1.2 µg/mL (≈ 1 µM)

CN[C@H](CC(C)C)C(=O)N[C@H]1C(=O)N[C@@H](CC(N)=O)C(=O)N[C@H]2C(=O)N[C@H]3C(=O)N[C@H](C(=O)N[C@H](C(=O)O)c4cc(O)cc(O)c4-c4cc3ccc4O)[C@H](O)c3ccc(c(Cl)c3)Oc3cc2cc(c3O[C@@H]2O[C@H](CO)[C@@H](O)[C@H](O)[C@H]2O[C@H]2C[C@](C)(N)[C@H](O)[C@H](C)O2)Oc2ccc(cc2Cl)[C@H]1O [Vancomycin, reference compound]
MIC (S.aureus 011GO71; 011GO71, read-out: Minimum Inhibition Concentration): 0.6 µg/mL (≈ 0.414 µM) | MIC (E.faecalis O2D2HM9; O2D2HM9, read-out: Minimum Inhibition Concentration): > 40 µg/mL | MIC (S.aureus 011GR91; 011GR91, read-out: Minimum Inhibition Concentration): 1.2 µg/mL (≈ 0.828 µM) | MIC (E.gallinarium O2D0HM8): > 40 µg/mL | MIC (S.pyogenes O2A1SJ1; O2A1SJ1, read-out: Minimum Inhibition Concentration): 0.15 µg/mL (≈ 0.104 µM) | MIC (S.mitis O2mitGR16; O2MITGR16, read-out: Minimum Inhibition Concentration): 0.3 µg/mL (≈ 0.207 µM) | MIC (S.aureus 011HT1; 011HT1, read-out: Minimum Inhibition Concentration): 0.08 µg/mL (≈ 0.0552 µM) | MIC (E.faecalis O2D2HT10; O2D2HT10, read-out: Minimum Inhibition Concentration): 0.6 µg/mL (≈ 0.414 µM) | MIC (S.aureus 011HT3; 011HT3, read-out: Minimum Inhibition Concentration): 0.3 µg/mL (≈ 0.207 µM) | MIC (E.faecium O2D3AP9; O2D3AP9, read-out: Minimum Inhibition Concentration): > 40 µg/mL | MIC [3]: 0.6 µg/mL (≈ 0.414 µM) | MIC (E.faecium O2D3HM3; O2D3HM3, read-out: Minimum Inhibition Concentration): > 40 µg/mL | MIC (E.faecalis O2D2UC5; ATCC29212, read-out: Minimum Inhibition Concentration): 2.5 µg/mL (≈ 1.73 µM) | MIC (E.faecium O2D3HT12; O2D3HT12, read-out: Minimum Inhibition Concentration): > 40 µg/mL | MIC (S.pneumoniae 030BI2; 030BI2, read-out: Minimum Inhibition Concentration): 0.15 µg/mL (≈ 0.104 µM) | MIC (S.aureus 011CB20; 011CB20, read-out: Minimum Inhibition Concentration): 0.15 µg/mL (≈ 0.104 µM) | MIC (S.pyogenes O2A1UC1; O2A1UC1, read-out: Minimum Inhibition Concentration): 0.15 µg/mL (≈ 0.104 µM) | MIC (S.pyogenes O2A1FI6; O2A1FI6, read-out: Minimum Inhibition Concentration): 0.08 µg/mL (≈ 0.0552 µM) | MIC (S.aureus 011HT18; ATCC13709, read-out: Minimum Inhibition Concentration): 0.3 µg/mL (≈ 0.207 µM) | MIC (S.milleri O2milGR12): 0.3 µg/mL (≈ 0.207 µM) | MIC (S.aureus 011DU5; 011DU5, read-out: Minimum Inhibition Concentration): 0.15 µg/mL (≈ 0.104 µM) | MIC (S.aureus 011GO64; 011GO64, read-out: Minimum Inhibition Concentration): 1.2 µg/mL (≈ 0.828 µM) | MIC (Strepto gr.G O2G0CB2): 0.15 µg/mL (≈ 0.104 µM) | MIC (E.faecium O2D3IP2): > 40 µg/mL | MIC (E.faecalis O2D2DU18; O2D2DU18, read-out: Minimum Inhibition Concentration): 0.3 µg/mL (≈ 0.207 µM)
